Assay results published in patent US20070148184A1, “Survivin-derived peptides and use thereof” (priority 2003, published 2007).
Where “and” joins values, the source holds several entries; their conditions need not be identical. Equal values may be shown once. Entries after “also recorded” stand apart in the source; their conditions may differ. Read-outs that look alike come from different tables or passages of the source. Residues, ends and D or L forms follow the SMILES beside them. No end group written: not given here.

Experiments:
HLA-A3 = HLA-A3 (Homo sapiens, UniProt P04439); test: Assembly assay, HLA-A3; format: binding; details: for EC50: Table 4, HLA-A3, read-out: C50
Experimental: (§1) The binding affinity of synthetic peptides (Invitrogen, Carlsbad, Calif., USA) to HLA-A1, -A2, A3, or -A11 molecules metabolically labeled with [^35S]-methionine was measured in the assembly assay, as described previously (12). The assay is based on peptide-mediated stabilization of empty HLA molecules released upon cell lysis, from the TAP-deficient cell lines. Stably folded HLA-molecules were immune-precipitated using the HLA class I-specific, conformation-dependent mAb W6/32, and separated by isoelectric focusing (IEF) gel electrophoresis. MHC heavy chain bands were quantified using the ImageGauge Phosphorimager program (FUJI photo film Co., Carrollton, Tex., USA). The intensity of the band is proportional to the amount of peptide-bound class I MHC complex recovered during the assay. Subsequently, the extent of stabilization of the HLA-molecule is directly related to the binding affinity of the added peptide. The peptide concentration used to analyze the recovery of the HLA-molecules was 40, 4, 0.4, 0.04 μM for HLA-A1 and HLA-A11, and 100, 10, 1, 0.1, 0.01 μM for HLA-A2 and HLA-A3. The C50 value was subsequently calculated for each peptide as the peptide concentration sufficient for half maximal stabilization.

HLA-A2 = biological target: T1, HLA-A2 (Homo sapiens, UniProt P04439, D140Y/D185E/D98H/E176V/E277Q/G131W/G231S/I119V/I121R/I166T/I218V/L300P/L318F/N151K/N90K/P208A/P217A/Q86G/Q94H/R138H/R169H/T345S); test: Assembly assay for peptide binding to class I MHC, HLA-A2
T1 construct: stabilization of the class I molecules after loading of peptide to the peptide transporter deficient cell line T2; endogenous in cells; host or cells: T2 (TAP-deficient human hybrid cell line), metabolically labelled lysate
Experimental: This assembly assay is carried out as described previously (12,13), and it is based on stabilisation of the HLA molecule after loading of peptide to the peptide transporter deficient cell line T2. Subsequently, correctly folded stable HLA heavy chains are immunoprecipitated using conformation dependent antibodies and the peptide binding is quantitated.
Assembly assays for binding of the synthetic peptides to class I MHC molecules metabolically labeled with [35S]-methionine were carried out as described (12,13). The assembly assay is based on stabilization of the class I molecules after loading of peptide to the peptide transporter deficient cell line T2. Subsequently, correctly folded stable MHC heavy chains are immunoprecipitated using conformation-dependent antibodies. After IEF electrophoresis, gels were exposed to phosphoImager screens, and peptide binding was quantified using the Imagequant PhosphorImager program (Molecular Dynamics, Sunnyvale, Calif.).
as §1, with “Stably folded HLA-molecules were immune-precipitated using the HLA class I-specific, conformation-dependent mAb W6/32, and separated by isoelectric focusing (IEF) gel electrophoresis.” left out

[1] = test system: peptide epitope-specific interferon-γ releasing effector cells; test: IFN-γ ELISPOT, Example 4 (PBL or TIL from cancer patients); format: cell-based, human
Experimental: To extend the sensitivity of the ELISPOT assay, PBL were stimulated once in vitro prior to analysis. At day 0, PBL or crushed lymph nodes were thawed and plated as 2×10^6 cells in 2 ml/well in 24-well plates (Nunc, Roskilde, Denmark) in x-vivo medium (Bio Whittaker, Walkersville, Md.), […] heat-inactivated human serum, and 2 mM of L-glutamine in the presence of 10 μM of peptide. Two days later 20 IU/ml recombinant interleukin-2 (IL-2) (Chiron, Ratingen, Germany) was added to the cultures. The cultured cells were tested for reactivity in the ELISPOT on day 10.
The ELISPOT assay was used to quantify peptide epitope-specific interferon-γ releasing effector cells as previously described (16). Briefly, nitrocellulose bottomed 96-well plates (MultiScreen MAIP N45, Millipore, Hedehusene, Denmark) were coated with anti-IFN-γ antibody (1-D1K, Mabtech, Nacka, Sweden). The wells were washed, blocked by X-vivo medium, and the cells were added in duplicates at different cell concentrations. The peptides were then added to each well and the plates were incubated overnight. The following day, media was discarded and the wells were washed prior to addition of biotinylated secondary antibody (7-B6-1-Biotin, Mabtech). The plates were incubated for 2 hours, washed, and avidin-alkaline phosphatase conjugate (Calbiochem, Life Technologies, Inc. San Diego, Calif., USA) was added to each well. The plates were incubated at room temperature for one hour, washed, and the enzyme substrate NBT/BCIP (DakoCytomation Norden A/S, Glostrup, Denmark) was added to each well and incubated at RT for 5-10 min. Upon the emergence of dark purple spots, the reaction was terminated by washing with tap-water. The spots were counted using the ImmunoSpot® Series 2.0 Analyzer (CTL Analyzers, LLC, Cleveland, US) and the peptide specific CTL frequency could be calculated from the numbers of spot-forming cells. All assays were performed in duplicates for each peptide antigen.

[2] = Example 1, Table 1, read-out: C50 (peptide concentration for half maximal binding to HLA-A2)
[3] = Table 4, HLA-A2, 11-mers and controls, read-out: C50

## CC[C@H](C)[C@H](N)C(=O)N[C@@H](CC(C)C)C(=O)N[C@@H](CCCNC(=N)N)C(=O)NCC(=O)N[C@@H](CO)C(=O)N[C@H](C(=O)N[C@@H](C)C(=O)N[C@@H](Cc1c[nH]cn1)C(=O)N[C@@H](CCCCN)C(=O)O)C(C)C [C3, reference compound]
HLA-A3
  EC50: 0.1 to 0.3 µM and 0.1 µM

## CC(C)C[C@H](NC(=O)[C@H](CCCCN)NC(=O)[C@H](CC(C)C)NC(=O)[C@H](Cc1ccccc1)NC(=O)[C@H](CCC(=O)O)NC(=O)CNC(=O)[C@H](CC(C)C)NC(=O)[C@@H](NC(=O)[C@@H](N)CC(C)C)[C@@H](C)O)C(=O)O [Sur1]
HLA-A2; [2]
  EC50: > 100 µM
HLA-A2; Example 4, read-out: C50 (half maximal recovery of HLA-A2)
  EC50: > 100 µM

## CC[C@H](C)[C@H](NC(=O)[C@H](C)NC(=O)[C@H](CCCNC(=N)N)NC(=O)[C@H](CCCNC(=N)N)NC(=O)[C@@H](NC(=O)[C@@H](N)CCCCN)C(C)C)C(=O)N[C@@H](CCC(=O)O)C(=O)N[C@@H](CCC(N)=O)C(=O)N[C@@H](CC(C)C)C(=O)O [Sur3]
HLA-A2; [2]
  EC50: > 100 µM

## CC(C)C[C@H](NC(=O)[C@@H](N)[C@@H](C)O)C(=O)N1CCC[C@H]1C(=O)N1CCC[C@H]1C(=O)N[C@@H](C)C(=O)N[C@@H](Cc1c[nH]c2ccccc12)C(=O)N[C@@H](CCC(N)=O)C(=O)N1CCC[C@H]1C(=O)N[C@@H](CCCCN)C(=O)O [Sur5K9]
[1]; HLA-A3, nine samples from melanoma patients (five PBL and four TIL)
  ELISPOT response: No responses were detected
HLA-A3
  binding to HLA-A3, in words: high affinity
  EC50: 2 µM

## CC(C)C[C@H](NC(=O)[C@H](CCCCN)NC(=O)[C@H](CC(C)C)NC(=O)[C@@H](N)Cc1ccccc1)C(=O)N[C@@H](CC(=O)O)C(=O)N[C@@H](CCCNC(=N)N)C(=O)N[C@@H](CCC(=O)O)C(=O)N[C@@H](CCCNC(=N)N)C(=O)N[C@@H](C)C(=O)O [Sur6]
HLA-A2; [2]
  EC50: 30 µM

## CC(C)C[C@H](NC(=O)[C@H](Cc1ccccc1)NC(=O)[C@@H]1CCCN1C(=O)[C@H](CCC(N)=O)NC(=O)[C@H](Cc1c[nH]c2ccccc12)NC(=O)[C@H](C)NC(=O)[C@@H]1CCCN1C(=O)[C@@H]1CCCN1C(=O)[C@H](CC(C)C)NC(=O)[C@@H](N)[C@@H](C)O)C(=O)O [Sur8]
HLA-A2; [2]
  EC50: 30 µM

## CC(C)C[C@H](NC(=O)[C@H](CCCCN)NC(=O)[C@H](CC(C)C)NC(=O)[C@H](Cc1ccccc1)NC(=O)[C@H](CCC(=O)O)NC(=O)CNC(=O)[C@H](CC(C)C)NC(=O)[C@@H](NC(=O)[C@H](CC(C)C)NC(=O)[C@@H](N)CCC(=O)O)[C@@H](C)O)C(=O)O [Sur9]
HLA-A2; [2]
  EC50: 10 µM

## CC(C)C[C@H](NC(=O)[C@@H](N)CC(=O)O)C(=O)N[C@@H](C)C(=O)N[C@@H](CCC(N)=O)C(=O)N[C@@H](CS)C(=O)N[C@@H](Cc1ccccc1)C(=O)N[C@@H](Cc1ccccc1)C(=O)N[C@@H](CS)C(=O)N[C@@H](CCCCN)C(=O)O [Sur53K9] (H-DLAQCFFCK-OH; N-terminus and C-terminus assumed)
HLA-A3
  binding to HLA-A3, in words: no detectable effect

## CC(C)C[C@H](NC(=O)[C@H](CCC(=O)O)NC(=O)[C@H](CCCCN)NC(=O)[C@H](Cc1ccccc1)NC(=O)[C@H](CS)NC(=O)[C@H](Cc1ccccc1)NC(=O)[C@H](Cc1ccccc1)NC(=O)[C@H](CS)NC(=O)[C@H](CCC(N)=O)NC(=O)[C@H](C)NC(=O)[C@@H](N)CC(C)C)C(=O)O [Sur54-64] (H-LAQCFFCFKEL-OH; N-terminus and C-terminus assumed)
HLA-A2; Example 4
  C50 (half maximal recovery of HLA-A2): did not bind

## CC(C)C[C@H](NC(=O)[C@H](CCC(=O)O)NC(=O)[C@H](CCC(=O)O)NC(=O)[C@H](Cc1ccccc1)NC(=O)[C@H](CCC(N)=O)NC(=O)[C@H](CCCCN)NC(=O)[C@H](CCCCN)NC(=O)[C@@H](NC(=O)[C@H](CO)NC(=O)[C@H](CC(C)C)NC(=O)[C@@H](N)Cc1ccccc1)C(C)C)C(=O)O [Sur86-96]
[1]; HLA-A2, ten cancer patients analyzed
  patients with CTL response in PBL: no responses could be detected

## CC[C@H](C)[C@H](N)C(=O)N[C@@H](CC(C)C)C(=O)N[C@@H](CCCCN)C(=O)N[C@@H](CCC(=O)O)C(=O)N[C@H](C(=O)N[C@@H](CC(N)=O)C(=O)N[C@@H](CC(N)=O)C(=O)N[C@@H](CCCCN)C(=O)N[C@@H](CCCCN)C(=O)N[C@@H](CCCCN)C(=O)O)[C@@H](C)O [Sur113L2]
HLA-A3
  binding to HLA-A3, in words: only bound weakly
  EC50: > 100 µM

## CC[C@H](C)[C@H](NC(=O)[C@@H](N)[C@@H](C)O)C(=O)N[C@@H](CCCNC(=N)N)C(=O)N[C@@H](CCCNC(=N)N)C(=O)N[C@@H](CCCCN)C(=O)N[C@@H](CC(N)=O)C(=O)N[C@@H](CC(C)C)C(=O)N[C@@H](CCCNC(=N)N)C(=O)N[C@@H](CCCCN)C(=O)O [SurEx3-A3-1]
HLA-A3
  EC50: 0.5 µM

## CAFLSVKKQF [Sur 84-93]
HLA-A3
  EC50: > 100 µM

## ETAKKVRRAI [Sur10]
HLA-A2; Example 1, Table 1
  C50 (peptide concentration for half maximal binding to HLA-A2): did not bind; also recorded: Not binding

## FLKDHRISTF [Sur 13-22]
HLA-A3
  EC50: > 100 µM

## FLKDHRISTK [Sur13K9]
HLA-A3
  binding to HLA-A3, in words: no detectable effect
  EC50: > 100 µM

## FLKLDRERAK [Sur 101-110]
HLA-A3
  EC50: > 100 µM

## IAKETNNKKK [Sur 113-122]
HLA-A3
  EC50: > 100 µM

## KLDRERAKNK [Sur 103-112]
HLA-A3
  EC50: > 100 µM

## KLDRERAKNKI [Sur103-113]
HLA-A2; Example 4
  C50 (half maximal recovery of HLA-A2): did not bind
HLA-A2; [3]
  EC50: > 100 µM

## PTENEPDLAQ [Sur47-56]
[1]; HLA-A1, ten melanoma patients, data not shown
  ELISPOT response: no peptide-specific responses were detected

## PTIRRKNLRK [SurEx3-A3-2]
HLA-A3
  EC50: > 100 µM

## PTLPPAWQPFL [Sur4-14]
HLA-A2; Example 4
  C50 (half maximal recovery of HLA-A2): did not bind
HLA-A2; [3]
  EC50: > 100 µM

## RAIEQLAAM [Sur2]
HLA-A2; Example 1, Table 1
  C50 (peptide concentration for half maximal binding to HLA-A2): did not bind; also recorded: Not binding

## RISTFKNWPF [Sur 18-27]
HLA-A3
  EC50: > 100 µM

## RITREEHKK [Sur2b-A3-1]
HLA-A3
  EC50: > 100 µM

## STFKNWPFL [Sur4]
HLA-A2; Example 1, Table 1
  C50 (peptide concentration for half maximal binding to HLA-A2): did not bind; also recorded: Not binding

## SVKKQFEEL [Sur5]
HLA-A2; Example 1, Table 1
  C50 (peptide concentration for half maximal binding to HLA-A2): did not bind; also recorded: Not binding

## SVKKQFEELTL [Sur88-98]
HLA-A2; Example 4
  C50 (half maximal recovery of HLA-A2): did not bind
HLA-A2; [3]
  EC50: > 100 µM

## TAKKVRRAI [Sur7]
HLA-A2; Example 1, Table 1
  C50 (peptide concentration for half maximal binding to HLA-A2): did not bind; also recorded: Not binding

## TLPPAWQPF [Sur 5-13]
HLA-A3
  EC50: > 100 µM
